Square brackets hold non-standard residues; d marks the D form. Peptide text beside a SMILES is read from it. Phe(4-NH2) = Nc1ccc(C[C@H](N)C(=O)O)cc1; 1Nal = N[C@@H](Cc1cccc2ccccc12)C(=O)O; NMeV = CN[C@H](C(=O)O)C(C)C; Dab = NCC[C@H](N)C(=O)O; Abu = CC[C@H](N)C(=O)O; βAla = NCCC(=O)O; Sar = CNCC(=O)O
System: C. albicans (CA-1, Strain SLU-1)
Experiment: Radial diffusion assay
Type: cell-based, Candida albicans
Conditions: for C. albicans pmol/30 mm^2 zone: pmoles of peptide added to well to achieve a 30 mm^2 zone, PROBIT analysis, crude or purified (P′) peptide; for Plate Assay (nmol), crude peptide activity: nanomoles required to achieve a net 30 mm^2 zone (log titration curve)
Protocol: In the radial diffusion assay procedures, the CA-1 cultures and peptide solutions were prepared as in the broth assay procedure described above. Ten mL of molten underlayer agarose comprising 3% Sabouraud Dextrose broth, 1% agarose (Pharmacia, Piscataway, N.J.), 0.02% Tween 20, and 10 mM sodium phosphate at pH 7.4, was added to polystyrene tubes and maintained in a 56° C. water bath until the addition of yeast. Tubes were cooled to approximately 45° C., yeast were added to give a final concentration of 1×10^6 CFU/mL, and the tubes were mixed again by inverting. The contents were poured into level square petri dishes and distributed evenly. […] A series of wells were punched into the hardened agarose using a sterile 3 mm punch attached to a vacuum apparatus.
Peptides to be assayed were 2-fold serially diluted in Dulbecco's PBS (D-PBS) starting from a concentration of approximately 1 mg/mL. Five μL of each dilution were added to each well and the plates were incubated at 37° C. for 3 hours. An overlayer of 10 mL of molten agarose comprising 6% Sabouraud Dextrose broth, 1% agarose, and 10 mM sodium phosphate, pH 7.4, (at approximately 45° C.) was then added and plates were incubated overnight at 37° C. Following this overnight incubation, a dilute Coomassie solution was poured into the plates and allowed to stain for 24 hours.
Clear zones of growth inhibition around each well were measured with calipers. The actual area of growth inhibition (mm^2) was calculated by subtracting the area of the well. Table 1 below sets out the results of the radial diffusion assays for tested peptides in terms of the number of picomoles (pmol) of peptide required to establish a 30 mm^2 area of growth inhibition calculated by PROBIT analysis (e.g., calculated from regression of the linear portion of log-concentration dose-response curve, log pmol/well vs. net area of inhibition).

Row | Compound | C. albicans pmol/30 mm^2 zone | also measured
1 | CC[C@H](C)[C@H](NC(=O)[C@H](CC(C)C)NC(=O)[C@H](Cc1c[nH]c2ccccc12)NC(=O)CNC(=O)[C@@H](NC(=O)[C@H](CCCCN)NC(=O)[C@H](CO)NC(=O)[C@@H](N)CCCCN)C(C)C)C(=O)N[C@@H](CCC(N)=O)C(=O)N[C@@H](CC(C)C)C(=O)N[C@@H](Cc1c[nH]c2ccccc12)C(=O)N[C@@H](Cc1c[nH]cn1)C(=O)N[C@@H](CCCCN)C(=O)N[C@@H](Cc1cccc2ccccc12)C(N)=O [XMP.230] (H-KSKVGWLIQLWHK[1Nal]-NH2) | >2,386 pmol/30 mm^2 zone | –
2 | CC[C@H](C)[C@H](NC(=O)[C@H](CC(C)C)NC(=O)[C@H](Cc1c[nH]c2ccccc12)NC(=O)[C@H](CCN)NC(=O)[C@@H](N)CCN)C(=O)N[C@@H](CCC(N)=O)C(=O)N[C@@H](CC(C)C)C(=O)N[C@@H](CCN)C(=O)N[C@@H](CCN)C(N)=O [XMP.339] (H-[Dab][Dab]WLIQL[Dab][Dab]-NH2) | 2,878 pmol/30 mm^2 zone | C. albicans pmol/30 mm^2 zone (listed as XMP.339P′): 2,599 pmol/30 mm^2 zone
3 | H-KSKVGWLIQLFHKKKSKVGWLIQLFHKK-NH2 [XMP.29] | >1469 pmol/30 mm^2 zone | –
4 | H-KVKWLIQLFHK-NH2 [XMP.288] | >3,062 pmol/30 mm^2 zone | C. albicans pmol/30 mm^2 zone (listed as XMP.288P′): 279 pmol/30 mm^2 zone
5 | CC[C@H](C)[C@H](NC(=O)[C@H](CC(C)C)NC(=O)[C@H](Cc1c[nH]c2ccccc12)NC(=O)[C@@H](N)CCCCN)C(=O)N[C@@H](CCC(N)=O)C(=O)N[C@@H](CC(C)C)C(=O)N[C@@H](Cc1ccccc1)C(=O)N[C@@H](Cc1c[nH]cn1)C(=O)N[C@@H](CCCCN)C(=O)N[C@@H](CCCCN)C(N)=O [XMP.293] | 1,156 pmol/30 mm^2 zone | C. albicans pmol/30 mm^2 zone (listed as XMP.293P′): 215 pmol/30 mm^2 zone
6 | H-KSAVGWLIQLFHKK-NH2 [XMP.33] | 603 pmol/30 mm^2 zone | –
7 | H-KSKVGWLIQLAHKK-NH2 [XMP.41] | 734 pmol/30 mm^2 zone | –
8 | H-KVKWLIQL-NH2 [XMP.300] | 1,957 pmol/30 mm^2 zone | C. albicans pmol/30 mm^2 zone (listed as XMP.300P′): 993 pmol/30 mm^2 zone
9 | H-KSKVGWLILLWHKK-NH2 [XMP.241] | >2,161 pmol/30 mm^2 zone | –
10 | CC[C@H](C)[C@H](NC(=O)[C@H](CC(C)C)NC(=O)[C@H](Cc1c[nH]c2ccccc12)NC(=O)CNC(=O)[C@@H](NC(=O)[C@H](CCCCN)NC(=O)[C@H](CO)NC(=O)[C@@H](N)CCCCN)C(C)C)C(=O)N[C@@H](CCC(N)=O)C(=O)N[C@@H](CC(C)C)C(=O)N[C@@H](Cc1c[nH]c2ccccc12)C(=O)N[C@@H](Cc1cccc2ccccc12)C(=O)N[C@@H](CCCCN)C(=O)N[C@@H](CCCCN)C(N)=O [XMP.234] (H-KSKVGWLIQLW[1Nal]KK-NH2) | b (No detectable activity up to 5 μg/well) | –
11 | XMP.383: K - K - L - L - L - Q - L - K - K (SEQ ID NO:214) (KKLLLQLKK) | 473 pmol/30 mm^2 zone | –
12 | H-KSKVGWLIQLFHKKKSKVGWLILLFHKK-NH2 [XMP.271] | >1,995 pmol/30 mm^2 zone | –
13 | CC[C@H](C)[C@H](NC(=O)[C@H](CC(C)C)NC(=O)[C@H](Cc1cccc2ccccc12)NC(=O)CNC(=O)[C@@H](NC(=O)[C@H](CCCCN)NC(=O)[C@H](CO)NC(=O)[C@@H](N)CCCCN)C(C)C)C(=O)N[C@@H](CCC(N)=O)C(=O)N[C@@H](CC(C)C)C(=O)N[C@@H](Cc1ccccc1)C(=O)N[C@@H](Cc1cccc2ccccc12)C(=O)N[C@@H](CCCCN)C(=O)N[C@@H](CCCCN)C(N)=O [XMP.148] (H-KSKVG[1Nal]LIQLF[1Nal]KK-NH2) | >2805 pmol/30 mm^2 zone | –
14 | CC[C@H](C)[C@H](NC(=O)[C@H](CC(C)C)NC(=O)CN(C)C(=O)CNC(=O)[C@@H](NC(=O)[C@H](CCCCN)NC(=O)[C@H](CO)NC(=O)[C@@H](N)CCCCN)C(C)C)C(=O)N[C@@H](CCC(N)=O)C(=O)N[C@@H](CC(C)C)C(=O)N[C@@H](Cc1ccccc1)C(=O)N[C@@H](Cc1c[nH]cn1)C(=O)N[C@@H](CCCCN)C(=O)N[C@@H](CCCCN)C(N)=O [XMP.259] (H-KSKVG[Sar]LIQLFHKK-NH2) | 2,117 pmol/30 mm^2 zone | –
15 | H-SKVKWL-NH2 [Peptide 312] | – | Plate Assay (nmol), crude peptide activity: >11.20 nmol
16 | H-IQLFHKK-NH2 [XMP.311] | b (No detectable activity up to 5 μg/well) | –
17 | H-SKVKWLIQ-NH2 [XMP.299] | >8,768 pmol/30 mm^2 zone | –

Row | Compound | C. albicans pmol/30 mm^2 zone | also measured
18 | H-KVKWLIQ-NH2 [XMP.306] | >10,485 pmol/30 mm^2 zone | –
19 | CC[C@H](C)[C@H](NC(=O)[C@H](CC(C)C)NC(=O)[C@@H](C)NC(=O)CNC(=O)[C@@H](NC(=O)[C@H](CCCCN)NC(=O)[C@H](CO)NC(=O)[C@@H](N)CCCCN)C(C)C)C(=O)N[C@@H](CCC(N)=O)C(=O)N[C@@H](CC(C)C)C(=O)N[C@@H](Cc1ccccc1)C(=O)N[C@@H](Cc1c[nH]cn1)C(=O)N[C@@H](CCCCN)C(=O)N[C@@H](CCCCN)C(N)=O [XMP.252] (H-KSKVG[dA]LIQLFHKK-NH2) | 1,613 pmol/30 mm^2 zone | –
20 | H-KVKWLIQ-NH2 [Peptide 306] | – | Plate Assay (nmol), crude peptide activity: >10.485 nmol
21 | H-KAKVGWLIQLFHKK-NH2 [XMP.32] | 294 pmol/30 mm^2 zone | –
22 | H-SKVKWLIQ-NH2 [Peptide 299] | – | Plate Assay (nmol), crude peptide activity: >8.768 nmol
23 | CC[C@H](C)[C@H](NC(=O)[C@H](CC(C)C)NC(=O)[C@H](Cc1c[nH]c2ccccc12)NC(=O)CNC(=O)[C@@H](NC(=O)[C@H](CCCCN)NC(=O)[C@H](CO)NC(=O)[C@@H](N)CCCCN)C(C)C)C(=O)N[C@@H](CCC(N)=O)C(=O)N[C@@H](Cc1cccc2ccccc12)C(=O)N[C@@H](Cc1c[nH]c2ccccc12)C(=O)N[C@@H](Cc1c[nH]cn1)C(=O)N[C@@H](CCCCN)C(=O)N[C@@H](CCCCN)C(N)=O [XMP.237] (H-KSKVGWLIQ[1Nal]WHKK-NH2) | >2,777 pmol/30 mm^2 zone | –
24 | CC[C@H](C)[C@H](NC(=O)[C@H](CC(C)C)NC(=O)CCNC(=O)CNC(=O)[C@@H](NC(=O)[C@H](CCCCN)NC(=O)[C@H](CO)NC(=O)[C@@H](N)CCCCN)C(C)C)C(=O)N[C@@H](CCC(N)=O)C(=O)N[C@@H](CC(C)C)C(=O)N[C@@H](Cc1ccccc1)C(=O)N[C@@H](Cc1c[nH]cn1)C(=O)N[C@@H](CCCCN)C(=O)N[C@@H](CCCCN)C(N)=O [XMP.254] (H-KSKVG[βAla]LIQLFHKK-NH2) | 1,040 pmol/30 mm^2 zone | –
25 | XMP.382: K - K - L - L - Q - L - L - K - K (SEQ ID NO:213) (KKLLQLLKK) | 1,437 pmol/30 mm^2 zone | –
26 | H-KWLIQLF-NH2 [XMP.308] | b (No detectable activity up to 5 μg/well) | –
27 | CC[C@H](C)[C@H](NC(=O)[C@H](CC(C)C)NC(=O)[C@H](Cc1c[nH]c2ccccc12)NC(=O)[C@H](Cc1ccc(N)cc1)NC(=O)[C@@H](NC(=O)[C@H](CCCCN)NC(=O)[C@H](CO)NC(=O)[C@@H](N)CCCCN)C(C)C)C(=O)N[C@@H](CCC(N)=O)C(=O)N[C@@H](CC(C)C)C(=O)N[C@@H](Cc1ccccc1)C(=O)N[C@@H](Cc1cccc2ccccc12)C(=O)N[C@@H](CCCCN)C(=O)N[C@@H](CCCCN)C(N)=O [XMP.233] (H-KSKV[Phe(4-NH2)]WLIQLF[1Nal]KK-NH2) | b (No detectable activity up to 5 μg/well) | –
28 | CC[C@H](C)[C@H](NC(=O)[C@H](CC(C)C)NC(=O)[C@H](C(C)C)N(C)C(=O)CNC(=O)[C@@H](NC(=O)[C@H](CCCCN)NC(=O)[C@H](CO)NC(=O)[C@@H](N)CCCCN)C(C)C)C(=O)N[C@@H](CCC(N)=O)C(=O)N[C@@H](CC(C)C)C(=O)N[C@@H](Cc1ccccc1)C(=O)N[C@@H](Cc1c[nH]cn1)C(=O)N[C@@H](CCCCN)C(=O)N[C@@H](CCCCN)C(N)=O [XMP.260] (H-KSKVG[NMeV]LIQLFHKK-NH2) | 742 pmol/30 mm^2 zone | –
29 | CC[C@H](NC(=O)CNC(=O)[C@@H](NC(=O)[C@H](CCCCN)NC(=O)[C@H](CO)NC(=O)[C@@H](N)CCCCN)C(C)C)C(=O)N[C@@H](CC(C)C)C(=O)N[C@H](C(=O)N[C@@H](CCC(N)=O)C(=O)N[C@@H](CC(C)C)C(=O)N[C@@H](Cc1ccccc1)C(=O)N[C@@H](Cc1c[nH]cn1)C(=O)N[C@@H](CCCCN)C(=O)N[C@@H](CCCCN)C(N)=O)[C@@H](C)CC [XMP.255] (H-KSKVG[Abu]LIQLFHKK-NH2) | 392 pmol/30 mm^2 zone | –
30 | H-SVHVHISKSKVGWLIQLFHKKIESALRNK-NH2 [XMP.12] | >2099 pmol/30 mm^2 zone | –
31 | H-KSKVGWLINLFHKK-NH2 [XMP.262] | 984 pmol/30 mm^2 zone | –
32 | H-KSKVGWLIQLWHKK-NH2 [XMP.82] | 518 pmol/30 mm^2 zone | –
33 | H-KSKVGWLIDLFHKK-NH2 [XMP.264] | 879 pmol/30 mm^2 zone | –

Source: patent publication US6664231B1, “Anti-fungal peptides” (priority 1993, dated 2003)
